Like-named read-outs stand apart in the source and are kept apart here.
Tested on: brain tissue of rats
Conditions: n=5
Procedure: Experiment 11 Effects of Drinking and 5-Methyltetrahydrofolate on the Concentrations of Formaldehyde and Formate in the Brain of Rats
The concentrations of formaldehyde and formate, as well as those of serotonin and dopamine in brain tissue of rats were detected at this time. SPF-grade female SD rats, fasted overnight, were divided into 4 groups.
(1) Ethanol group, with intragastric administration of ethanol at a dose of 1 g/kg respectively at 1, 2, 3 h, n=5; (2) control group, with intragastric administration of glucose at a dose of 1.6 g/kg (equivalent to alcohol calories) respectively at 1, 2, and 3 h, n=5; (3) 5-methyltetrahydrofolate group, with intragastric administration of 5-methyltetrahydrofolate calcium at a dose of 4 mg/kg at 0 h, followed by glucose at a dose of 1.6 g/kg (equivalent to alcohol calories) respectively at 1, 2, and 3 h, n=5; (4) 5-methyltetrahydrofolate alcohol group, with intragastric administration of 5-methyltetrahydrofolate calcium at a dose of 4 mg/kg at 0 h, followed by ethanol at a dose of 1 g/kg respectively at 1, 2, and 3 h, n=5.
Gas chromatography was used to detect methanol and ethanol concentrations in blood of rats, and HPLC was used to detect formaldehyde concentration in brain tissue. 0.1 g of brain tissue was taken and 0.5 ml of SDN lysate was added to make homogenate, then 0.5 ml of trifluoroacetic acid was added. The sample was centrifuged at 4° C., 0.4 ml of supernatant was collected, 0.1 ml DNPH (1 g/L) was added, mixed and incubated in 60° C. water bath for 30 min, centrifuged at 4° C., and supernatant was collected to detect formaldehyde concentration. Fluorescence spectrometry was used to detect formate concentration in brain. Serotonin and dopamine enzyme-linked immunosorbent reagent was used to detect neurotransmitters in brain in strict accordance with the instructions.

[1] = 5-methyltetrahydrofolate calcium 4 mg/kg ig at 0 h + ethanol 1 g/kg at 1, 2, 3 h, 24 h after drinking
[2] = 5-methyltetrahydrofolate calcium 4 mg/kg ig at 0 h + glucose 1.6 g/kg at 1, 2, 3 h, 24 h

**Q.** `CN1c2c([nH]c(N)nc2=O)NCC1CNc1ccc(C(=O)N[C@@H](CCC(=O)O)C(=O)O)cc1` (stereo partly drawn) [5-methyltetrahydrofolate, N-[4-[[(2-amino-1,4,5,6,7,8-hexahydro-4-oxo-5-methyl-(6S), -(6R), and (6R,S)-pteridyl)methyl)amino)toluoyl-glutamic acid] was tested. Which “5-hydroxytryptamine in brain tissue” value [1] did it give?
**A.** 0.10 ± 0.1 µg/L

**Q.** And the “Dopamine in brain tissue” value [1]?
**A.** 27 ± 4 ng/L

**Q.** What about the “Formaldehyde in brain tissue” value [1] of the same molecule?
**A.** 1.14 ± 0.31 mg/L

**Q.** And the “Formate in brain tissue” value [1]?
**A.** 5.5 ± 0.4 mg/L

**Q.** What about the “5-hydroxytryptamine in brain tissue” value [2] of the same molecule?
**A.** 0.12 ± 0.04 µg/L

**Q.** And the “Dopamine in brain tissue” value [2]?
**A.** 35 ± 3 ng/L

**Q.** And the “Formaldehyde in brain tissue” value [2]?
**A.** 0.39 ± 0.11 mg/L

**Q.** And the “Formate in brain tissue” value [2]?
**A.** 2.1 ± 0.2 mg/L
